Data from PMC8689225, “Cardiac ryanodine receptor N-terminal region biosensors identify novel inhibitors via FRET-based high-throughput screening” (The Journal of Biological Chemistry, 2021).

Assays:
[1] = test system: rat skeletal muscle fibers; experiment: Electrically evoked Ca2+ transients in skinned skeletal muscle fibers; format: cell-based; details: 10 μM FA or 1 mM tetracaine, 1 Hz
From the text: Mechanically skinned fibers were isolated, mounted in a custom chamber, and bathed in a resting physiological solution containing rhod-2, as previously described ([21]). The Ca^2+-sensitive dye rhod-2 was used to track cytosolic Ca^2+ transients when exposed to electrical stimulation. Field pulses at 1 Hz frequency and 4 ms in duration were applied across platinum electrodes parallel to the long axis of the fiber. Imaging for electrical stimulation experiments was in xt mode, at a rate of 2 ms.line^−1. DMSO vehicle (0.01%), FA (10 μM), and tetracaine were added to the physiological solution. Each treatment was applied precisely at the seventh successive Ca^2+ transient.

RyR1 [2] = biological target: T1, RyR1 (Rattus norvegicus, UniProt F1LMY4); experiment: t-tubule Ca2+ measurement of RyR1 leak in skinned skeletal muscle fibers; format: cell-based; details: 10 μM FA or 1 mM tetracaine, [Ca2+]cyto 200 nM
T1 construct: from tissue; host or cells: Wistar rat extensor digitorum longus (EDL), mechanically skinned single fibres
Protocol: All experimental methods using rodents were approved by the Animal Ethics Committees at The University of Queensland and were performed in accordance with the relevant guidelines and regulations. Five-month-old Wistar rats (UQ Biological Resources) were euthanized by asphyxiation via CO2 exposure, and the extensor digitorum longus (EDL) was rapidly excised. Once dissected, muscles were pinned to Sylgard set in a Petri dish containing paraffin oil.
Bundles of fibers were isolated and exposed to an internal solution containing rhod-5N, as described previously ([47]). After 15 min incubation, single skeletal muscle fibers were mechanically skinned and mounted in a custom-made chamber. […] For tracking Ca^2+ movements across the t-system membrane, images were continuously recorded in xyt mode with an aspect ratio of 256 × 512, with the long aspect of the image parallel with that of the preparation. Temporal resolution of imaging in this mode where the fluorescence signal was within the borders of the fiber was 0.8 s.
T-system rhod-5N fluorescence was converted to [Ca^2+]t-sys as previously described ([47]). To determine the effect of RyR modulators on the RyR Ca^2+ leak, isolated mechanically skinned fibers were continuously imaged as described above, to obtain a record of t-system rhod-5N fluorescence changes over time as the cytoplasmic solution bathing the fiber was changed. […]

RyR1 [3] = biological target: T2, RyR1 (Sus scrofa, UniProt P16960); experiment: [3H]ryanodine binding to skeletal SR (HSR) vesicles; format: biochemical, pig; details: for EC50: EC50, [3H]ryanodine binding, skeletal HSR, Table S4
T2 construct: from tissue; host or cells: porcine longissimus dorsi muscle, heavy SR vesicles
Protocol: (§1) Crude sarcoplasmic reticulum membrane vesicles were isolated from porcine longissimus dorsi muscle and porcine cardiac left ventricle tissue by differential centrifugation of homogenized tissue, as established previously ([65]). Skeletal heavy SR (HSR) vesicles, which are enriched with RyR1, were isolated by fractionation of crude skeletal SR vesicles using a discontinuous sucrose gradient, in accordance with our published work ([65]). All vesicles were flash-frozen and stored at −80 °C.
(§2) In 96-well plates, skeletal SR membranes (HSR, 1 mg/ml) and cardiac SR membranes (CSR, 3 mg/ml) were preincubated with 1% DMSO or hit compound for 30 min at 22 °C in a solution containing 150 mM KCl, 5 mM GSH, 1 μg/ml Aprotinin/Leupeptin, 1 mM EGTA, and 65 μM or 1.02 mM CaCl2 (as determined by MaxChelator to yield 30 nM or 30 μM of free Ca^2+, respectively), 0.1 mg/ml of BSA, and 20 mM K-PIPES (pH 7.0). Nonspecific [^3H]ryanodine binding to SR was assessed by addition of 40 μM nonradioactively labeled ryanodine. Maximal [^3H]ryanodine binding was assessed by addition of 5 mM adenylyl-imidodiphosphate (AMP-PNP), and in the case of CSR, 20 mM caffeine was added. These control samples were each loaded over four wells per plate. Binding of [^3H]ryanodine (7.5 and 10 nM for CSR and HSR, respectively) was determined following a 3 h incubation at 37 °C and filtration through grade GF/B glass microfiber filters (Brandel Inc) using a Brandel Harvester. In 4 ml of Ecolite scintillation cocktail (MP biomedicals), [^3H]ryanodine retained on the filter was counted using a Beckman LS6000 scintillation counter.

α2-adrenergic receptors = test system: α2-adrenergic receptors; set-up: method as in PMID 7969082; details: cited from earlier work
RyR2 = biological target: T3, RyR2 (Sus scrofa, UniProt A0A5G2R1W3); experiment: [3H]ryanodine binding to cardiac SR (CSR) vesicles; format: biochemical, pig
T3 construct: from tissue; host or cells: porcine cardiac left ventricle, crude SR vesicles
Protocol: as §1, §2

mouse RyR2 NTR = biological target: T4, mouse RyR2 NTR (Mus musculus, UniProt E9Q401, K30C/K441C, form not given); experiment: FLT-FRET dose-response with AC-NTR biosensor; format: binding
T4 sequence (E9Q401 1-547 K30C/K441C): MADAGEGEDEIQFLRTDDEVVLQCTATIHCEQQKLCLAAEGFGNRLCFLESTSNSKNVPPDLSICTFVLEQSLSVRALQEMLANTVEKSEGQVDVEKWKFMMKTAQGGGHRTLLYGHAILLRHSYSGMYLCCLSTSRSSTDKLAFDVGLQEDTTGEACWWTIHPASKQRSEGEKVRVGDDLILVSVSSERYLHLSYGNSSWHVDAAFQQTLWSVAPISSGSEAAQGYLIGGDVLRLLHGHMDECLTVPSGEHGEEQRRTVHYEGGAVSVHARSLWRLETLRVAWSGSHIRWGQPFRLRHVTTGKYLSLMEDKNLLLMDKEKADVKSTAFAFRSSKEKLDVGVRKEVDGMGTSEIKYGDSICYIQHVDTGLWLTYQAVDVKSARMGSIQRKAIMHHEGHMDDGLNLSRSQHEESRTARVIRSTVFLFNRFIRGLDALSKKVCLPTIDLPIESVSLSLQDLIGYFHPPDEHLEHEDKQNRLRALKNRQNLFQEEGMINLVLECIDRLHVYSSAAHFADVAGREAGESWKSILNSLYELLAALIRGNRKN
From the text: The NTR of mouse RyR2 (residues 1–547) was cloned and expressed as previously described ([27]). The DNA construct contains a 6×His tag, a maltose-binding protein (MBP) tag, and a tobacco etch virus (TEV) protease cleavage site. The seven native solvent-exposed cysteine residues were substituted with alanine residues, and two constructs were engineered with Cys substitutions at surface residues R383 and K441 (in the B and C domains, respectively; termed BC) and at K30 and K441 (in the A and C domains, respectively; termed AC) for labeling with spectroscopic probes such as appropriate donor–acceptor fluorophores for FRET (for the purpose of this report, these are considered the WT forms of AC and BC). A variant of the BC construct corresponding to the disease-associated mutant (R420Q) was also prepared. For this site-directed mutagenesis work, we used the QuikChange (Stratagene) and Phusion High-Fidelity PCR (Thermo Fisher Scientific) kits. The WT-NTR, R420Q-NTR, AC- and BC-NTR, AC- and BC-R420Q-NTR protein constructs were expressed in Escherichia coli Rosetta (DE3) pLacI cells at 18 °C and purified with a protocol adapted from previously published work ([26]). An amylose column was first applied after the cells were lysed by ultrasonication. The protein in the elution was then cleaved using TEV protease. The cleaved crude protein went through the second amylose column to separate from the MBP and then followed by a Superdex S-200 size exclusion column in a buffer consisting of 250 mM KCl, 10 mM HEPES, and 14 mM β-mercaptoethanol (pH 7.4). The NTR protein (3 μM) was then incubated in 10 mM HEPES, 250 mM KCl (pH 7.4, 2 h, 21 °C) with the fluorescent probes Alexa Fluor 488 maleimide (AF488, donor; 40 μM) and Alexa Fluor 568 maleimide (AF568, acceptor; 60 μM). The maleimide of the dye reacts with the thiols the Cys residues engineered into NTR, forming a covalently labeled protein. The Alexa dyes were added last to the reaction mixture, from 10 mM DMSO stock solutions. This reaction is not selective to one site (K30C or K441C), and we anticipate that there is a mixed population with K30C or K441C labeled with either AF488 (donor) or AF568 (acceptor). We focused on maximizing the fraction containing donor–acceptor pairs, thus maximizing FRET efficiency and the precision for detecting a change in structure as an indication that a compound interacts with the NTR biosensor. The labeling efficiency was determined by comparing the molar concentration of the bound dye, determined from UV-Vis absorbance, to the protein concentration, determined from gel densitometry. Essentially complete labeling was confirmed from electrospray ionization mass spectrometry. CD spectra of the WT-NTR and mutant R420Q-NTR constructs before and after labeling were recorded using a JASCO J-815 CD spectrometer (JASCO), confirming similar folding (Fig. S1).
The 1536-well assay plates were prepared as described in our previous reports ([21]). The LOPAC (Sigma-Aldrich) collection received in 96-well plates was reformatted into 384-well polypropylene intermediate plates (Greiner Bio-One) using a multichannel liquid handler, BioMek FX (Beckman Coulter), then transferred to 384-well Echo Qualified source plates (Labcyte Inc). Assay plates were prepared as previously described ([20]). On screening days, these plates were thawed out and were loaded with labeled NTR (5 μl, 20 nM final concentration) using a Multidrop Combi automated sample dispenser.
HTS measurements were conducted in a prototype top-read FLT plate reader (FLT-PR, Fluorescence Innovations, Inc), which reads each 1536-well plate in ∼3 min ([63], [64]). AF488 donor fluorescence was excited with a 473 nm microchip laser from Concepts Research Corporation, and the emission signal was split into two channels by a dichroic mirror and acquired with 517 ± 10 nm (channel 1) and 535 ± 7 nm band-pass filters (channel 2) (Semrock). […]

T2 sequence (P16960 whole entry): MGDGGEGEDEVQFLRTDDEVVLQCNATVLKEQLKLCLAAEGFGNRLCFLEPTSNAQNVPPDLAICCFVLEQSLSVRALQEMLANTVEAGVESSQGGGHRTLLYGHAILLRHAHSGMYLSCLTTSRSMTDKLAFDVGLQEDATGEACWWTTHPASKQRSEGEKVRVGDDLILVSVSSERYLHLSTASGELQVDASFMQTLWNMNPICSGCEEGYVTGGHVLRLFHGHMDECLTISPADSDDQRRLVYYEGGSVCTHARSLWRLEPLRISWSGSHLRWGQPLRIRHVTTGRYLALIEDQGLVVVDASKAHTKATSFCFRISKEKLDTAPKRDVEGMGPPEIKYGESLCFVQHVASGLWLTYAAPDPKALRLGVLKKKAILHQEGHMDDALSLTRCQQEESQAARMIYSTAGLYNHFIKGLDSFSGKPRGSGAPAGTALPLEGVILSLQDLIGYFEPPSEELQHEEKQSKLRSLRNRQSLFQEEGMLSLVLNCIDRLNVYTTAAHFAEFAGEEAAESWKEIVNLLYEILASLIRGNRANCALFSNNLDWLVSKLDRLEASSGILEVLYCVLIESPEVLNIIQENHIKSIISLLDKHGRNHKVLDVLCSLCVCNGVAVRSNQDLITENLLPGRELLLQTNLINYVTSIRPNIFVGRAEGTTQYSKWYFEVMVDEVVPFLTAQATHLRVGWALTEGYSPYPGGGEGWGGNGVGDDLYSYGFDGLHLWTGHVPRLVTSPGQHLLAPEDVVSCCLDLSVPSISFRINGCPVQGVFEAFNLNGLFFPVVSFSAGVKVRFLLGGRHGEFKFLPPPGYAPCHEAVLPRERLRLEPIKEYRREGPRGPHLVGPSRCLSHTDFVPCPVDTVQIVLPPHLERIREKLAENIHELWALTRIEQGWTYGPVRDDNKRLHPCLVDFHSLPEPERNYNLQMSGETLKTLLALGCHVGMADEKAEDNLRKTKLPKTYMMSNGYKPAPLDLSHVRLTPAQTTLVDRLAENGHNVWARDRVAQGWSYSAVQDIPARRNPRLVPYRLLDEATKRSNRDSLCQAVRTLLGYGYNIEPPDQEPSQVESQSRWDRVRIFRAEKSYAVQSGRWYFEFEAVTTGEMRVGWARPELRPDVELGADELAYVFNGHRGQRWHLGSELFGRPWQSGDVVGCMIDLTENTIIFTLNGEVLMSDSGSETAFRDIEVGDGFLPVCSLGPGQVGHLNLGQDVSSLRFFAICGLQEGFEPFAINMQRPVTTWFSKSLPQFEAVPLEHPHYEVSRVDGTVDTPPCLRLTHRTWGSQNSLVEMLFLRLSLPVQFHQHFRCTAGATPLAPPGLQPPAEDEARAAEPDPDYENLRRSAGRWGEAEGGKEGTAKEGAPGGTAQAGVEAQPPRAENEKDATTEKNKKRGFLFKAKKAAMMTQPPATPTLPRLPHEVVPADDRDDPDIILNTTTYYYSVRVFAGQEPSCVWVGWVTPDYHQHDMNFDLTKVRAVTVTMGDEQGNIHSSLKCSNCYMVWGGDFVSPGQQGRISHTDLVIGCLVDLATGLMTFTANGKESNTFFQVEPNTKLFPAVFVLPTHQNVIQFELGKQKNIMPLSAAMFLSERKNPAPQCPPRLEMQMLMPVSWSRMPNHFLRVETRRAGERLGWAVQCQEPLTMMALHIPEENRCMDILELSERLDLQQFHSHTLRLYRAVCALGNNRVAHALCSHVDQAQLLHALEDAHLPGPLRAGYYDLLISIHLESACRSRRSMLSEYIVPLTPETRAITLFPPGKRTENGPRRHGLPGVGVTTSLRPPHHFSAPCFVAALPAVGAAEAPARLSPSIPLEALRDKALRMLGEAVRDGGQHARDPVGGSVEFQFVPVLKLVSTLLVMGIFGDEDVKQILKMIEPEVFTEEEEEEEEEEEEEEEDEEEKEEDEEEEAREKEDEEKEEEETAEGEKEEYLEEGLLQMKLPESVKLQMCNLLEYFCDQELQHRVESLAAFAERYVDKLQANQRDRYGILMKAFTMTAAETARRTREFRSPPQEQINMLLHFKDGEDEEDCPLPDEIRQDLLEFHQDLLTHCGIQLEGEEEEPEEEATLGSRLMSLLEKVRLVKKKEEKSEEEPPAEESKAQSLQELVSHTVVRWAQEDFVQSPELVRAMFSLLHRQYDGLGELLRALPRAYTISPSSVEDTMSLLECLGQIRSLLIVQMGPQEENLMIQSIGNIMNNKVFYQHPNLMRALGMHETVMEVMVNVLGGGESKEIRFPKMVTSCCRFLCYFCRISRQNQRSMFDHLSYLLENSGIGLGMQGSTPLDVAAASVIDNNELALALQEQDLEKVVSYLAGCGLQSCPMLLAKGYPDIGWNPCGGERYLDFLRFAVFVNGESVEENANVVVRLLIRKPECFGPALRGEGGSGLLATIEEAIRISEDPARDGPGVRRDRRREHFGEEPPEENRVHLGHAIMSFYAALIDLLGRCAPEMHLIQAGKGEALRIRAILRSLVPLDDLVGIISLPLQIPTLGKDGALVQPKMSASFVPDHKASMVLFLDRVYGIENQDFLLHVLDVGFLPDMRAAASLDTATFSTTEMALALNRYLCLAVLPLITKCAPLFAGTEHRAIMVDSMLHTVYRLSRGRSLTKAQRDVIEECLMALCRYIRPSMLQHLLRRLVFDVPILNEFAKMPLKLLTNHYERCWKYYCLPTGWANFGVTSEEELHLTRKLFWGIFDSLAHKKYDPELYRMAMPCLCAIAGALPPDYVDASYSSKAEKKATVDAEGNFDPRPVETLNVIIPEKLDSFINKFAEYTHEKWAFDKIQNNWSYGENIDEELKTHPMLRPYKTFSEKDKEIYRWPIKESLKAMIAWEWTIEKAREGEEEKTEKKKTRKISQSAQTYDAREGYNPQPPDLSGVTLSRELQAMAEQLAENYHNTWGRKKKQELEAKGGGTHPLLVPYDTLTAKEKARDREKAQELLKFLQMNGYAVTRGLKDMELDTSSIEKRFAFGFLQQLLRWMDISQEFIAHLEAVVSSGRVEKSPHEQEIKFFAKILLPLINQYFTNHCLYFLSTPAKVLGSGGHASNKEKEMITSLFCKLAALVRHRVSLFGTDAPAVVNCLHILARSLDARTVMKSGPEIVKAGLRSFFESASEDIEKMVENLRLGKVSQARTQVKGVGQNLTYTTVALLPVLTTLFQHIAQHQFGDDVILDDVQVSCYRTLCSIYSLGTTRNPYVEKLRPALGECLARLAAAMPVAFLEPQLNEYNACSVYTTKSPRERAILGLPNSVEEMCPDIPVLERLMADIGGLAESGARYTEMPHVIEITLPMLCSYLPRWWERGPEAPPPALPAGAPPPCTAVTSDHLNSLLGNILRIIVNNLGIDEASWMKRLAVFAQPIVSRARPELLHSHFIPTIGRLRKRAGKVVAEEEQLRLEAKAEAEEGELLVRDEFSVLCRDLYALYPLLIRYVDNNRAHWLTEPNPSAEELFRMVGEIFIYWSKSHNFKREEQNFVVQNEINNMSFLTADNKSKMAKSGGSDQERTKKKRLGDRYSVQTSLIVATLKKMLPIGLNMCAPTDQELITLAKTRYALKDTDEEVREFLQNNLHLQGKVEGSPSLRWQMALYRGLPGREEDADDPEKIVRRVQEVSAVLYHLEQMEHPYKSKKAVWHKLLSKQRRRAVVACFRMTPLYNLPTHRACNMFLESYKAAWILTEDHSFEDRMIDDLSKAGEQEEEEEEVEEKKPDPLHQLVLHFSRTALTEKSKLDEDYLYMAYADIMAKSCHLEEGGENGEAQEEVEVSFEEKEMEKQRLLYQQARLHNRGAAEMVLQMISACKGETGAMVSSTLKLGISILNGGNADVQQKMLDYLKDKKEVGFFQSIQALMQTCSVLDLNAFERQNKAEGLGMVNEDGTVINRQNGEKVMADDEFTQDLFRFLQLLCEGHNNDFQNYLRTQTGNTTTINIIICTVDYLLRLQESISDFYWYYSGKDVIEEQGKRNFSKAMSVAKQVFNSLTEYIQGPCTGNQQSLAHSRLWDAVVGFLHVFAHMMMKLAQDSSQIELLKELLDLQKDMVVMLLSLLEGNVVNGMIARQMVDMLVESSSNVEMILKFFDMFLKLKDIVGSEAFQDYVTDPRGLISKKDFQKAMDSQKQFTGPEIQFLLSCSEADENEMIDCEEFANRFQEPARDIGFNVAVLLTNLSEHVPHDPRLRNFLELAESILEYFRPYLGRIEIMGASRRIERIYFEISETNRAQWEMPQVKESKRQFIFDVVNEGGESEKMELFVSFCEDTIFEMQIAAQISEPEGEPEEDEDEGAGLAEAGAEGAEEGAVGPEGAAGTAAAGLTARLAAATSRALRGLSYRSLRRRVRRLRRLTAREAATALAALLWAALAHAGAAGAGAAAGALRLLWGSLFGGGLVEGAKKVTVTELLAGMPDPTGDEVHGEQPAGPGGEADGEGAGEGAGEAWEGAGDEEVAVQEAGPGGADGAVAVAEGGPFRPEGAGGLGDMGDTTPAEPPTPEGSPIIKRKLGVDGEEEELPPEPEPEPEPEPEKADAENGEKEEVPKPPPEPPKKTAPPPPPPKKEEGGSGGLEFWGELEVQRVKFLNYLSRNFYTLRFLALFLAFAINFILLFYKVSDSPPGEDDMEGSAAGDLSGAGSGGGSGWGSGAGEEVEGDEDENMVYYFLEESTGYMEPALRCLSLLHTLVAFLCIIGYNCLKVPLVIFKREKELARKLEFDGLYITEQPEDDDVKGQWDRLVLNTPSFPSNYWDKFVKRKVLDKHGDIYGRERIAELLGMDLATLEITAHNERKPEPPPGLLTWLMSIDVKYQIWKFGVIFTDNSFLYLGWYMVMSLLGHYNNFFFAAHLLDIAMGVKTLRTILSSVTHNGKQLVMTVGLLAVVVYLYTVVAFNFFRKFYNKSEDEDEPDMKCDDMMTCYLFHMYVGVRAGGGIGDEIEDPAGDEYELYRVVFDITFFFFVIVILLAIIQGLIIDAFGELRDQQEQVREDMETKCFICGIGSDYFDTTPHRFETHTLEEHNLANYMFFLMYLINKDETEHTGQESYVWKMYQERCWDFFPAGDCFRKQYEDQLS

Structure (SMILES): CCCCNc1ccc(C(=O)OCCN(C)C)cc1 [tetracaine]
- electrically induced Ca2+ transient amplitude [1]: significantly decreased
- steady-state [Ca2+]t-sys (RyR1 leak) (RyR1 [2]): full RyR inhibition

Structure (SMILES): C[C@H](N)[C@H](O)c1ccc(O)c(O)c1 [corbadrine, 4-[(1R,2S)-2-amino-1-hydroxypropyl]benzene-1,2-diol]
- EC50 (RyR1 [3]; [Ca2+] 30 nM): 20 nM
- EC50 (RyR1 [3]; [Ca2+], 30 µM): 15300 nM
- maximum inhibitory effect on [3H]ryanodine binding (RyR1 [3]; skeletal SR, 30 nM Ca2+): ~70%
- effect on [3H]ryanodine binding to RyR1 (RyR1 [3]; skeletal SR, 30 μM Ca2+): strongly increased
- binding affinity for α2-adrenergic receptors (α2-adrenergic receptors): very high binding affinity
- EC50 (RyR2): 10 nM
- effect on [3H]ryanodine binding to RyR2 (RyR2; cardiac SR, 30 μM Ca2+): slight activation at high concentrations
- ΔFLT (mouse RyR2 NTR; AC-NTR biosensor, 0 to 100 μM, CPNQ/corbadrine decrease FLT, FA/tacrolimus increase FLT): ≈ 0.35 ns
- EC50 relative to CPNQ (fold higher) (mouse RyR2 NTR; FRET dose-response): ~3 fold
- EC50 (mouse RyR2 NTR; read-out: EC50, FRET dose-response, AC-NTR biosensor, Hill fit, Table S4): 3600 nM
